In ChEMBL document CHEMBL1649237, “IND-6, a highly divergent IND-type metallo-beta-lactamase from Chryseobacterium indologenes strain 597 isolated in Burkina Faso” (2009):
Converted amounts (≈) assume the structure as drawn.

What was measured:
Format in all cases: functional
[1] = tested on: Escherichia coli; test: Antimicrobial activity against Escherichia coli DH5alpha harboring metallo-beta-lactamase IND-6 after 18 hrs by broth microdilution method; conditions: DH5[alpha]
[2] = tested on: Escherichia coli; test: Antimicrobial activity against Escherichia coli DH5alpha harboring plasmid pBC-SK after 18 hrs by broth microdilution method; conditions: DH5[alpha]
[3] = tested on: Chryseobacterium indologenes; test: Antimicrobial activity against Chryseobacterium indologenes 597 expressing metallo-beta-lactamase IND-6 after 18 hrs by broth microdilution method; conditions: Chryseobacterium indologenes, 597, 18 h
[4] = tested on: Chryseobacterium indologenes; test: Antimicrobial activity against Chryseobacterium indologenes 597 expressing metallo-beta-lactamase IND-6 after 18 hrs by broth microdilution method in presence of beta-lactamase inhibitor Tazobactam; conditions: Chryseobacterium indologenes, 597, 18 h
[5] = tested on: Chryseobacterium indologenes; test: Antimicrobial activity against Chryseobacterium indologenes 597 expressing metallo-beta-lactamase IND-6 after 18 hrs by broth microdilution method in presence of beta-lactamase inhibitor clavulanic acid; conditions: Chryseobacterium indologenes, 597, 18 h

| Structure (SMILES) | MIC [1] [µg/mL] | MIC [2] [µg/mL] | MIC [3] [µg/mL] | MIC [4] [µg/mL] | MIC [5] [µg/mL] |
| --- | --- | --- | --- | --- | --- |
| C[C@H]1[C@H](NC(=O)/C(=N\OC(C)(C)C(=O)O)c2csc(N)n2)C(=O)N1S(=O)(=O)O [AZTREONAM] | 0.25 (≈ 0.574 µM) | 0.25 (≈ 0.574 µM) | – | – | – |
| C[C@@H](O)[C@H]1C(=O)N2C(C(=O)O)=C(SCCNC=N)C[C@H]12 [IMIPENEM ANHYDROUS] | 1 (≈ 3.34 µM) | – | ≥ 64 | – | – |
| CC(C)(O/N=C(\C(=O)N[C@@H]1C(=O)N2C(C(=O)[O-])=C(C[n+]3ccccc3)CS[C@H]12)c1csc(N)n1)C(=O)O [CEFTAZIDIME] | 1 (≈ 1.83 µM) | 0.12 (≈ 0.22 µM) | 8 (≈ 14.6 µM) | – | – |
| CO/N=C(\C(=O)N[C@@H]1C(=O)N2C(C(=O)O)=C(CSc3nc(=O)c(O)nn3C)CS[C@H]12)c1csc(N)n1 [CEFTRIAXONE] | 0.12 (≈ 0.216 µM) | 0.03 (≈ 0.0541 µM) | – | – | – |
| CO/N=C(\C(=O)N[C@@H]1C(=O)N2C(C(=O)[O-])=C(C[N+]3(C)CCCC3)CS[C@H]12)c1csc(N)n1 [CEFEPIME] | 0.12 (≈ 0.25 µM) | 0.03 (≈ 0.0624 µM) | 1 (≈ 2.08 µM) | – | – |
| CO[C@@]1(NC(=O)Cc2cccs2)C(=O)N2C(C(=O)O)=C(COC(N)=O)CS[C@@H]21 [CEFOXITIN] | 16 (≈ 37.4 µM) | 2 (≈ 4.68 µM) | 16 (≈ 37.4 µM) | – | – |
| CCN1CCN(C(=O)N[C@@H](C(=O)N[C@@H]2C(=O)N3[C@@H]2SC(C)(C)[C@@H]3C(=O)O)c2ccccc2)C(=O)C1=O [PIPERACILLIN] | – | – | 4 (≈ 7.73 µM) | 4 | – |
| CC(=O)OCC1=C(C(=O)O)N2C(=O)[C@@H](NC(=O)Cc3cccs3)[C@H]2SC1 [CEPHALOTHIN] | 64 (≈ 161 µM) | 4 (≈ 10.1 µM) | ≥ 64 | – | – |
| CC1(C)S[C@@H]2[C@H](NC(=O)[C@H](N)c3ccc(O)cc3)C(=O)N2[C@H]1C(=O)O [AMOXICILLIN] | – | – | – | – | ≥ 64 |
| CO/N=C(\C(=O)N[C@@H]1C(=O)N2C(C(=O)O)=C(COC(C)=O)CS[C@H]12)c1csc(N)n1 [CEFOTAXIME] | 0.5 (≈ 1.1 µM) | 0.12 (≈ 0.263 µM) | 32 (≈ 70.3 µM) | – | – |
| C[C@@H](O)[C@H]1C(=O)N2C(C(=O)O)=C(S[C@@H]3CN[C@H](C(=O)N(C)C)C3)[C@H](C)[C@H]12 [MEROPENEM] | 0.12 (≈ 0.313 µM) | 0.03 (≈ 0.0782 µM) | 8 (≈ 20.9 µM) | – | – |
| CC1(C)S[C@@H]2[C@H](NC(=O)[C@H](C(=O)O)c3ccsc3)C(=O)N2[C@H]1C(=O)O [TICARCILLIN] | 256 (≈ 666 µM) | 4 (≈ 10.4 µM) | – | – | – |
| CC1(C)S[C@@H]2[C@H](NC(=O)[C@H](N)c3ccccc3)C(=O)N2[C@H]1C(=O)O [AMPICILLIN] | 32 (≈ 91.6 µM) | – | ≥ 64 | – | – |
| CO[C@@]1(NC(=O)C(C(=O)O)c2ccsc2)C(=O)N2[C@@H](C(=O)O)C(C)(C)S[C@@H]21 (stereo partly specified) [TEMOCILLIN] | 16 (≈ 38.6 µM) | 4 (≈ 9.65 µM) | – | – | – |
| CO/N=C(\C(=O)N[C@@H]1C(=O)N2C(C(=O)O)=C(COC(N)=O)CS[C@H]12)c1ccco1 [CEFUROXIME] | 32 (≈ 75.4 µM) | 2 (≈ 4.71 µM) | ≥ 64 | – | – |
